{"source": "paper PMC6934184", "about": "“Selective DNA-PKcs inhibition extends the therapeutic index of localized radiotherapy and chemotherapy” (The Journal of Clinical Investigation, 2019)", "molecular_target": "T1, KIT (Homo sapiens, UniProt P10721)", "T1 construct": "purchased Thermo Fisher Scientific (Life Technologies) SelectScreen", "T1 sequence (P10721 26-976)": "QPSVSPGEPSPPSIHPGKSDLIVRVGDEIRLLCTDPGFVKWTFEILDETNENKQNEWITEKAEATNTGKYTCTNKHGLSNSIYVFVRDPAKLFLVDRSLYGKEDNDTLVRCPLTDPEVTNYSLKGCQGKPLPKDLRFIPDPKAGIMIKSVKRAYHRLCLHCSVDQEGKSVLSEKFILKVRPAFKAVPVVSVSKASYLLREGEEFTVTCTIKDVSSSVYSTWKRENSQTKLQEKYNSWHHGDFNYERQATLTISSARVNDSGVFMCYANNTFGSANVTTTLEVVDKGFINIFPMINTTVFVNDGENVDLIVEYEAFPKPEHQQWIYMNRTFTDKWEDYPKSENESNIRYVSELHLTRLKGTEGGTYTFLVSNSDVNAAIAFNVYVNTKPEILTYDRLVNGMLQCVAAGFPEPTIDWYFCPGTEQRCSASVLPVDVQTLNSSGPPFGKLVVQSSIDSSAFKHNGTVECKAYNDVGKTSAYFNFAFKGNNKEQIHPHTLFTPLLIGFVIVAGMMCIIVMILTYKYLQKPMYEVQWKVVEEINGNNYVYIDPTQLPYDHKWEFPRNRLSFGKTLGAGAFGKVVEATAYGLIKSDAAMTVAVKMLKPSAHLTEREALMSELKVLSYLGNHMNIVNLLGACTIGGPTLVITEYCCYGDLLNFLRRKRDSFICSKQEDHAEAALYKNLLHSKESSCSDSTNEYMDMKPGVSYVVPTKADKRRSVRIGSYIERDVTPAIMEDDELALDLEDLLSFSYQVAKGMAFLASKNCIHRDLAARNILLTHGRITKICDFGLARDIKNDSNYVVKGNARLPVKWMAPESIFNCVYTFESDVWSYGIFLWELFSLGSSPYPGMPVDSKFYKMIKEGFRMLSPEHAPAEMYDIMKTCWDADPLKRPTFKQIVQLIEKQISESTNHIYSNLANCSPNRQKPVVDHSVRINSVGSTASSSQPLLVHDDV", "test": "SelectScreen Z'LYTE", "format": "biochemical", "in_short": "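SelectScreen broad panel; activity (Z'LYTE, Adapta) plus binding formats. ATP: Km app for CSF1R Z'LYTE; 10 for CAMK1 Adapta. Readout = % per kinase.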", "data": [{"compound": "CN(C(=O)CN1CCOCC1)c1ccc2sc3c(-c4cccc5c(=O)cc(N6CC7CCC(C6)O7)oc45)cccc3c2c1", "note": "[NU5455]", "values": [{"measurement": "inhibition at 1 µM", "result": 5.3, "unit": "%"}]}]}
